# Biological target: hCB1R (Homo sapiens, UniProt P21554)
# Sequence (P21554 whole entry): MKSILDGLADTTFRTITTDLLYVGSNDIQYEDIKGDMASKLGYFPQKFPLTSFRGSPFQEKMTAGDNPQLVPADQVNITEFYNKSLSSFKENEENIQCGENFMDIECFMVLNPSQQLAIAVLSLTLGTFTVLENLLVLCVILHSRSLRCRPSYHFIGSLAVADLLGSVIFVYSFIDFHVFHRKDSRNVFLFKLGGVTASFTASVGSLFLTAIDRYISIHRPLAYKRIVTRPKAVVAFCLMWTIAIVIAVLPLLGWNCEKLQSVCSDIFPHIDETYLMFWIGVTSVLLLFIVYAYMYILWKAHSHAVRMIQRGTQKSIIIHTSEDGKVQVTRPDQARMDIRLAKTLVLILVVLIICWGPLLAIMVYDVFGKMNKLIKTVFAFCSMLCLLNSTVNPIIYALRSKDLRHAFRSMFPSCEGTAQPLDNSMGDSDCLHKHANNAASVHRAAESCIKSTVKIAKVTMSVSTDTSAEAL
# Test: In vitro functional assay (FLIPR, intracellular Ca2+) with recombinant HEK293 cells, CB1
# Type: cell-based
# Parameters: expressed in transfected cells; host or cells: HEK293
# Conditions: recombinant HEK293 cells expressing CB1 and Galpha16; 20 min preincubation, then reference agonist; Ca2+ change; read-out: hCB1R: FLIPR; IC50
# Description: In Vitro Functional Assays with Recombinant Cells:
row,Structure (SMILES),IC50
1,"CC1(C)C(=O)N(c2ccc(F)c(C(F)(F)F)c2)C(=O)N1Cc1ccc(F)cc1Nc1ccc(NS(C)(=O)=O)cc1 [Example 240, N-(4-{5-Fluoro-2-[3-(4-fluoro-3-trifluoromethylphenyl)-5,5-dimethyl-2,4-dioxoimidazolidin-1-ylmethyl]phenylamino}phenyl)methanesulfonamide]",11 nM
2,"CC1(C)C(=O)N(c2ccc(F)c(C(F)(F)F)c2)C(=O)N1Cc1ccc(F)cc1Nc1ccc2c(c1)C(=O)CCC2 [Example 204, 1-[4-Fluoro-2-(8-oxo-5,6,7,8-tetrahydronaphthalen-2-ylamino)benzyl]-3-(4-fluoro-3-trifluoromethylphenyl)-5,5-dimethylimidazolidine-2,4-dione]",46 nM
3,"CC1(C)C(=O)N(c2ccc(F)c(C(F)(F)F)c2)C(=O)N1Cc1ccc(F)cc1Nc1ccc2c(c1)C(=O)CC2 [Example 205, 1-[4-fluoro-2-(3-oxoindan-5-ylamino)benzyl]-3-(4-fluoro-3-trifluoromethylphenyl)-5,5-dimethylimidazolidine-2,4-dione]",17 nM
4,"CC1(C)C(=O)N(c2ccc(C#N)c(C(F)(F)F)c2)C(=O)N1Cc1ccccc1Nc1ccc2c(c1)COC2=O [Example 201, 4-{4,4-dimethyl-2,5-dioxo-3-[2-(1-oxo-1,3-dihydroisobenzofuran-5-ylamino)benzyl]imidazolidin-1-yl}-2-trifluoromethylbenzonitrile]",5 nM
5,"CC1(C)C(=O)N(c2ccc(C#N)c(C(F)(F)F)c2)C(=O)N1Cc1ccccc1Nc1ccc(O)cc1 [Example 135, 4-{3-[2-(4-Hydroxyphenylamino)benzyl]-4,4-dimethyl-2,5-dioxoimidazolidin-1-yl}-2-trifluoromethylbenzonitrile]",1 nM
6,"COC(=O)C(Cc1ccc(Nc2ccccc2CN2C(=O)N(c3ccc(C#N)c(C(F)(F)F)c3)C(=O)C2(C)C)cc1)C(=O)OC [Example 232, Dimethyl 2-(4-{2-[3-(4-cyano-3-trifluoromethylphenyl)-5,5-dimethyl-2,4-dioxoimidazolidin-1-ylmethyl]phenylamino}benzyl)malonate]",112 nM
7,"CC1(C)C(=O)N(c2ccc(C#N)c(C(F)(F)F)c2)C(=O)N1Cc1ccccc1Nc1ccc(N)c(F)c1 [Example 95, 4-{3-[2-(4-Amino-3-fluorophenylamino)benzyl]-4,4-dimethyl-2,5-dioxoimidazolidin-1-yl}-2-trifluoromethylbenzonitrile]",31 nM
8,"CC1(C)C(=O)N(c2ccc(C#N)c(C(F)(F)F)c2)C(=O)N1Cc1ccc(F)cc1Nc1ccc(C(=O)O)cc1 [Example 133, 4-{2-[3-(4-cyano-3-trifluoromethylphenyl)-5,5-dimethyl-2,4-dioxoimidazolidin-1-ylmethyl]-5-fluorophenylamino}benzoic acid]",10 nM
9,"Cc1cnccc1Nc1ccccc1CN1C(=O)N(c2ccc(C#N)c(C(F)(F)F)c2)C(=O)C1(C)C [Example 181, 4-{4,4-dimethyl-3-[2-(3-methylpyridin-4-ylamino)benzyl]-2,5-dioxoimidazolidin-1-yl}-2-trifluoromethylbenzonitrile]",8 nM
10,"CC1(C)C(=O)N(c2ccc(C#N)c(C(F)(F)F)c2)C(=O)N1Cc1ccccc1Nc1ccc(O)nn1 [Example 198, 4-{3-[2-(6-Hydroxypyridazin-3-ylamino)benzyl]-4,4-dimethyl-2,5-dioxoimidazolidin-1-yl}-2-trifluoromethylbenzonitrile trifluoroacetic acid]",23 nM
11,"CC(C)Oc1ccc(Nc2ccccc2CN2C(=O)N(c3ccc(C#N)c(C(F)(F)F)c3)C(=O)C2(C)C)cc1 [Example 127, 4-{3-[2-(4-isopropoxyphenylamino)benzyl]-4,4-dimethyl-2,5-dioxoimidazolidin-1-yl}-2-trifluoromethylbenzonitrile]",7 nM
12,"CC1(C)C(=O)N(c2ccc(C#N)c(C(F)(F)F)c2)C(=O)N1Cc1ccccc1Nc1ccc(N)cc1 [Example 113, 4-{3-[2-(4-Aminophenylamino)benzyl]-4,4-dimethyl-2,5-dioxoimidazolidin-1-yl}-2-trifluoromethylbenzonitrile]",4 nM

# — patent publication US7759366B2 (Sanofi-Aventis, priority 2006, dated 2010)
